Data published in US6573260B1, “Cycloalkyl-substituted aminomethylpyrrolidine derivatives” (Daiichi Pharmaceutical Co., Ltd., priority 1998, dated 2003).
Converted amounts (≈) assume the structure as drawn. Like-named read-outs stand apart in the source and are kept apart here.

What was measured:
Experiment in all cases: antibacterial activity (MIC), standard method of the Japan Society of Chemotherapy
Type in all cases: cell-based
E. coli, NIHJ = tested on: E. coli, NIHJ
Protocol: (§1) The antibacterial activity of each compound of the present invention was measured in accordance with the standard method specified by the Japan Society of Chemotherapy, with the results shown in the following Table 2 as MIC values (μg/ml). In this connection, MIC values of levofloxacin (LVFX) and ciprofloxacin (CPEX) are also shown for the sake of comparison with the MIC values of the compounds of the present invention.

E. faecalis, ATCC 19433 = tested on: E. faecalis, ATCC 19433
Protocol: as §1

K. pneumoniae TYPE 1 = tested on: K. pneumoniae TYPE 1
Protocol: as §1

PS. aeruginosa, 32121 = tested on: PS. aeruginosa, 32121
Protocol: as §1

Pr. vulgaris, 08601 = tested on: Pr. vulgaris, 08601
Protocol: as §1

Ps. aeruginosa, 32104 = tested on: Ps. aeruginosa, 32104
Protocol: as §1

S. aureus, 870307 = tested on: S. aureus, 870307
Protocol: as §1

S. aureus, FDA 209P = tested on: S. aureus, FDA 209P
Protocol: as §1

S. epidermidis, 56500 = tested on: S. epidermidis, 56500
Protocol: as §1

S. flexneri, 2A 5503 = tested on: S. flexneri, 2A 5503
Protocol: as §1

Ser. marcescens, 10100 = tested on: Ser. marcescens, 10100
Protocol: as §1

Str. pneumoniae, J24 = tested on: Str. pneumoniae, J24
Protocol: as §1

Str. pyogenes, G-36 = tested on: Str. pyogenes, G-36
Protocol: as §1

X. maltophilia, IID 1275 = tested on: X. maltophilia, IID 1275
Protocol: as §1

[1] = Escherichia coli, read-out: MIC
[2] = Enterococcus faecalis, ATCC19433, read-out: MIC
[3] = Klebsiella pneumoniae, TYPE1, read-out: MIC
[4] = Pseudomonas aeruginosa, read-out: MIC
[5] = Proteus vulgaris, read-out: MIC
[6] = Staphylococcus aureus, read-out: MIC
[7] = Staphylococcus aureus, FDA209P, read-out: MIC
[8] = Staphylococcus epidermidis, read-out: MIC
[9] = Shigella flexneri, 2A5503, read-out: MIC
[10] = Serratia marcescens, read-out: MIC
[11] = Streptococcus pneumoniae, read-out: MIC
[12] = Streptococcus pyogenes, G36, read-out: MIC
[13] = Stenotrophomonas maltophilia, IID1275, read-out: MIC

Row | Structure (SMILES) | MIC (E. coli, NIHJ; [1]) [µg/mL] | MIC (E. faecalis, ATCC 19433; [2]) [µg/mL] | MIC (K. pneumoniae TYPE 1; [3]) [µg/mL] | MIC (PS. aeruginosa, 32121; [4]) [µg/mL] | MIC (Pr. vulgaris, 08601; [5]) [µg/mL] | MIC (Ps. aeruginosa, 32104; [4]) [µg/mL] | MIC (E. coli, NIHJ) | MIC (E. faecalis, ATCC 19433) [µg/mL] | MIC (K. pneumoniae TYPE 1) [µg/mL] | MIC (PS. aeruginosa, 32121) [µg/mL] | MIC (Pr. vulgaris, 08601) [µg/mL] | MIC (Ps. aeruginosa, 32104) [µg/mL] | MIC (S. aureus, 870307) [µg/mL] | MIC (S. aureus, FDA 209P) | MIC (S. epidermidis, 56500) | MIC (S. flexneri, 2A 5503) | MIC (Ser. marcescens, 10100) [µg/mL] | MIC (Str. pneumoniae, J24) | MIC (Str. pyogenes, G-36) | MIC (X. maltophilia, IID 1275) [µg/mL] | also measured
1 | O=C(O)c1cn(C2CC2)c2cc(N3CCNCC3)c(F)cc2c1=O [CPFX, ciprofloxacin, reference compound] | ≤ 0.003 | 0.78 (≈ 2.35 µM) | 0.025 (≈ 0.0754 µM) | 0.025 (≈ 0.0754 µM) | ≤ 0.003 | 0.05 (≈ 0.151 µM) | – | – | – | – | – | – | – | – | – | – | – | – | – | – | MIC (S. aureus, 870307; [6]): 3.13 µg/mL (≈ 9.45 µM); MIC (S. aureus, FDA 209P; [7]): 0.1 µg/mL (≈ 0.302 µM); MIC (S. epidermidis, 56500; [8]): 0.2 µg/mL (≈ 0.604 µM); MIC (S. flexneri, 2A 5503; [9]): 0.006 µg/mL (≈ 0.0181 µM); MIC (Ser. marcescens, 10100; [10]): 0.025 µg/mL (≈ 0.0754 µM); MIC (Str. pneumoniae, J24; [11]): 0.1 µg/mL (≈ 0.302 µM); MIC (Str. pyogenes, G-36; [12]): 1.56 µg/mL (≈ 4.71 µM); MIC (X. maltophilia, IID 1275; [13]): 0.78 µg/mL (≈ 2.35 µM)
2 | C[C@H]1COc2c(N3CCN(C)CC3)c(F)cc3c(=O)c(C(=O)O)cn1c23 [LVFX, levofloxacin, reference compound] | 0.013 (≈ 0.036 µM) | 0.78 (≈ 2.16 µM) | 0.1 (≈ 0.277 µM) | 0.1 (≈ 0.277 µM) | 0.13 (≈ 0.36 µM) | 0.2 (≈ 0.553 µM) | – | – | – | – | – | – | – | – | – | – | – | – | – | – | MIC (S. aureus, 870307; [6]): > 6.25 µg/mL; MIC (S. aureus, FDA 209P; [7]): 0.2 µg/mL (≈ 0.553 µM); MIC (S. epidermidis, 56500; [8]): 0.39 µg/mL (≈ 1.08 µM); MIC (S. flexneri, 2A 5503; [9]): 0.025 µg/mL (≈ 0.0692 µM); MIC (Ser. marcescens, 10100; [10]): 0.1 µg/mL (≈ 0.277 µM); MIC (Str. pneumoniae, J24; [11]): 0.78 µg/mL (≈ 2.16 µM); MIC (Str. pyogenes, G-36; [12]): 0.2 µg/mL (≈ 0.553 µM); MIC (X. maltophilia, IID 1275; [13]): 0.39 µg/mL (≈ 1.08 µM)
3 | Nc1c(F)c(N2CCC(C(N)C3CC3)C2)c(F)c2c1c(=O)c(C(=O)O)cn2C1CC1F (stereo not drawn) [compound 5] | – | – | – | – | – | – | ≦0.003 μg/ml | 0.013 (≈ 0.0298 µM) | 0.013 (≈ 0.0298 µM) | 0.025 (≈ 0.0573 µM) | 0.013 (≈ 0.0298 µM) | 0.05 (≈ 0.115 µM) | 0.025 (≈ 0.0573 µM) | ≦0.003 μg/ml | ≦0.003 μg/ml | ≦0.003 μg/ml | 0.025 (≈ 0.0573 µM) | ≦0.003 μg/ml | ≦0.003 μg/ml | 0.05 (≈ 0.115 µM) | –
4 | COc1c(N2CCC(C(N)C3CC3)C2)c(F)cc2c(=O)c(C(=O)O)cn(C3CC3F)c12 (stereo not drawn) [compound 6] | – | – | – | – | – | – | ≦0.003 μg/ml | 0.025 (≈ 0.0577 µM) | 0.05 (≈ 0.115 µM) | 0.05 (≈ 0.115 µM) | 0.013 (≈ 0.03 µM) | 0.1 (≈ 0.231 µM) | 0.1 (≈ 0.231 µM) | ≦0.003 μg/ml | 0.006 µg/mL (≈ 0.0138 µM) | 0.006 µg/mL (≈ 0.0138 µM) | 0.1 (≈ 0.231 µM) | ≦0.003 μg/ml | ≦0.003 μg/ml | 0.2 (≈ 0.461 µM) | –
5 | Cc1c(N2CCC(C(N)C3CC3)C2)c(F)c(N)c2c(=O)c(C(=O)O)cn(C3CC3F)c12 (stereo not drawn) [compound 7] | – | – | – | – | – | – | ≦0.003 μg/ml | 0.013 (≈ 0.0301 µM) | 0.025 (≈ 0.0578 µM) | 0.025 (≈ 0.0578 µM) | 0.013 (≈ 0.0301 µM) | 0.05 (≈ 0.116 µM) | 0.025 (≈ 0.0578 µM) | ≦0.003 μg/ml | ≦0.003 μg/ml | ≦0.003 μg/ml | 0.05 (≈ 0.116 µM) | ≦0.003 μg/ml | ≦0.003 μg/ml | 0.05 (≈ 0.116 µM) | –
6 | COc1c(N2CCC(C(N)C3CC3)C2)ccc2c(=O)c(C(=O)O)cn(C3CC3)c12 (stereo not drawn) [compound 8] | – | – | – | – | – | – | 0.006 µg/mL (≈ 0.0151 µM) | 0.05 (≈ 0.126 µM) | 0.1 (≈ 0.252 µM) | 0.2 (≈ 0.503 µM) | 0.05 (≈ 0.126 µM) | 0.39 (≈ 0.981 µM) | 0.2 (≈ 0.503 µM) | 0.006 µg/mL (≈ 0.0151 µM) | 0.025 µg/mL (≈ 0.0629 µM) | 0.1 µg/mL (≈ 0.252 µM) | 0.2 (≈ 0.503 µM) | 0.006 µg/mL (≈ 0.0151 µM) | 0.013 µg/mL (≈ 0.0327 µM) | 0.2 (≈ 0.503 µM) | –
